This is an account of results in doi:10.1101/2023.07.20.549922v1 (biorxiv, 2023).

The target of data set [1] is T1, AmGSTD1 (Apis mellifera, UniProt A0A8U0Y9D4).
T1 sequence (A0A8U0Y9D4 1-240): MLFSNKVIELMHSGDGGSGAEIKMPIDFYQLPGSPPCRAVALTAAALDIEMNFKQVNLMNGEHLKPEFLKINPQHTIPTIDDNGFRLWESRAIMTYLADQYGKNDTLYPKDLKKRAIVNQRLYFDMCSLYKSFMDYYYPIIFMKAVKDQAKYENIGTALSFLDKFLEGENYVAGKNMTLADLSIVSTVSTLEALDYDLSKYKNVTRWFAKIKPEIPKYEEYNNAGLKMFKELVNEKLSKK
The data set is described as follows: ANS displacement fluorescence. The format is binding.

Data set [2] concerns the target T1, AmGSTD1. The data set is described as follows: ANS displacement fluorescence, Ki from IC50. The format is binding.
Data set [3] concerns the target T1, AmGSTD1. The data set is described as follows: fluorescence saturation binding.
For data set [4], the target named is T1, AmGSTD1. The data set is described as follows: absorbance initial rates, Michaelis-Menten. The note with it: 4 mM GSH; 100 mM KPi pH 6.5; 30 °C.
Substrate in data set [5]: S=C=NCCc1ccccc1
The experiment in a line: purified protein. Particulars: 4 mM GSH, 100 mM KPi pH 6.5, 30 °C.

Substrate in data set [6]: CCCCCC(O)/C=C/C=O
The data set is described as follows: purified protein. Particulars: 0.5 mM GSH, 100 mM KPi pH 6.5, 30 °C.

Substrate in data set [7]: CC(=O)Oc1ccc([N+](=O)[O-])cc1
The experiment in a line: purified protein. Particulars: 4 mM GSH, 100 mM KPi pH 6.5, 30 °C.

In the case of `O=C(O)COc1ccc(Cl)cc1Cl` [2,4-D], the IC50 (commonly the midpoint of a concentration-inhibition curve) in data set [1] was 1.01 ± 0.056 mM. The inhibitory constant (Ki) (in general, the equilibrium dissociation constant of an inhibitor or competing ligand from its target) in data set [2] was 41.4 µM.
The molecule `O=Cc1cccc(Oc2ccccc2)c1` [3-phenoxybenzaldehyde] showed an inhibition constant (Ki) in data set [2] of 302 µM.
For `O=S(=O)(O)c1cccc2cccc(Nc3ccccc3)c12` [ANS], the Kd (commonly a measure of binding affinity in units of concentration) in data set [3] is 2090 ± 102 nM.
As to `O=[N+]([O-])c1ccc(Cl)c([N+](=O)[O-])c1` [CDNB], the Michaelis-Menten constant (Km) (commonly the substrate concentration at which the rate is half of its maximum) in data set [4] was 525 ± 70 µM. Further, the IC50 in data set [1] stood at 1.22 ± 0.055 mM. The affinity in data set [2] corresponds to a Ki of 49.6 µM.
Consider `CCCN=C=S` [PITC], for which, in data set [4], the Michaelis constant (Km) stood at 1100 ± 140 µM.
`Oc1nc(Cl)c(Cl)cc1Cl` [TCP] returned an IC50 in data set [1] of 0.613 ± 0.027 mM. In addition, affinity in data set [2] was put at a Ki of 25 µM.
For `C=C(CC)C(=O)c1ccc(OCC(=O)O)c(Cl)c1Cl` [ethacrynic acid], the half-inhibitory concentration (IC50) in data set [1] is 1.02 ± 0.04 mM. The affinity in data set [2], expressed as Ki, was 41.5 µM.
On to `O=[N+]([O-])NC1=NCCN1Cc1ccc(Cl)nc1` [imidacloprid], for which the Ki in data set [2] came out at 130 µM.
Molecule `CCCCC(C#N)(Cn1cncn1)c1ccc(Cl)cc1` (stereo not shown) [myclobutanil] displayed a Ki in data set [2] of 148 µM.
In turn, `O=C(O)COc1nc(Cl)c(Cl)cc1Cl` [triclopyr] returned a concentration for half-maximal inhibition (IC50) in data set [1] of 1.86 ± 0.19 mM. The affinity in data set [2] corresponds to a Ki of 76.1 µM.

B1: AmGSTD1 (Apis mellifera) (protein)
chain: MLFSNKVIELMHSGDGGSGAEIKMPIDFYQLPGSPPCRAVALTAAALDIEMNFKQVNLMNGEHLKPEFLKINPQHTIPTIDDNGFRLWESRAIMTYLADQYGKNDTLYPKDLKKRAIVNQRLYFDMCSLYKSFMDYYYPIIFMKAVKDQAKYENIGTALSFLDKFLEGENYVAGKNMTLADLSIVSTVSTLEALDYDLSKYKNVTRWFAKIKPEIPKYEEYNNAGLKMFKELVNEKLSKK
Regarding B1, the Michaelis-Menten constant (Km) in data set [5] amounted to 0.819 ± 0.10 mM; in data set [6], 0.106 ± 0.034 mM; in data set [7] it was 1.16 ± 0.09 mM. Besides, the results for the turnover number (kcat) in data set [5], in data set [6] and in data set [7] were 236 ± 12 min⁻¹, 20.7 ± 2.6 min⁻¹ and 402 ± 14 min⁻¹, respectively.
